Each molecule was assayed against Neuronal acetylcholine receptor; alpha4/beta2 (Homo sapiens, UniProt P17787+P43681) (assay: Inhibition of alpha-4-beta-2 nAChR).
Format: protein-complex assay

Neuronal acetylcholine receptor; alpha4/beta2, sequence (P17787 whole entry): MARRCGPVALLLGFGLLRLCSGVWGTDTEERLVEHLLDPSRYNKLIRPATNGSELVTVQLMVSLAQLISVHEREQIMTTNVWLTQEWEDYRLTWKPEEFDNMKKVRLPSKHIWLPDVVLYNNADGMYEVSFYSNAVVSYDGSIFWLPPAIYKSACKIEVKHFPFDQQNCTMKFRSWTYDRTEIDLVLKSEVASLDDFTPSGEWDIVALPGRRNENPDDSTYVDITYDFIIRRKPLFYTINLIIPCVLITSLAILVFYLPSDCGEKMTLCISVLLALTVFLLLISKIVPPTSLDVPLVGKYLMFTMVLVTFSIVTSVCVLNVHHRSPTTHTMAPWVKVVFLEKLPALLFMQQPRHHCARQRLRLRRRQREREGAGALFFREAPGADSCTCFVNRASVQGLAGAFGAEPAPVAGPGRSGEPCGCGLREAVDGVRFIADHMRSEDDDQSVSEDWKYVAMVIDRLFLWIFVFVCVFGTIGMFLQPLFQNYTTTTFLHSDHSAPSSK
Neuronal acetylcholine receptor; alpha4/beta2, sequence (P43681 whole entry): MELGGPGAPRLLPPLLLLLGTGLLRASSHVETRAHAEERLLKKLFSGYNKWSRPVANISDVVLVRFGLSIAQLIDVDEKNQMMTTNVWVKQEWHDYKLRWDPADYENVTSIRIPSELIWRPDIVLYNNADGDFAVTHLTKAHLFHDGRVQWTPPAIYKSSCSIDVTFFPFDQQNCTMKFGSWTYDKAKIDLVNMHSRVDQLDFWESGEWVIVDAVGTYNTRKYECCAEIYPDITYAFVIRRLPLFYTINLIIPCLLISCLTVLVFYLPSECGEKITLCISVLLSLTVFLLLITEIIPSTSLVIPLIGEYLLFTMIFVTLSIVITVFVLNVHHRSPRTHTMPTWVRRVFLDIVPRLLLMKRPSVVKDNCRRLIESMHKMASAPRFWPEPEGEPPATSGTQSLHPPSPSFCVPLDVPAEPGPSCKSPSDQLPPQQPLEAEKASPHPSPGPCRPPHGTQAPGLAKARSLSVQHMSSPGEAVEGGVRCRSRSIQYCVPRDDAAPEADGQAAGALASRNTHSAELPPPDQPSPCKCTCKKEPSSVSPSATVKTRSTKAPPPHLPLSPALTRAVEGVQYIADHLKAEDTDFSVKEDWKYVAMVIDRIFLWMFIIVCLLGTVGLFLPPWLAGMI

**Q.** Which IC50 does the source give for `CC1C[N+]2(CCN(CCc3ccccc3)CC2)CC(C)O1.[Cl-]` (stereo not given) here?
**A.** The IC50 was > 10 µM.

The molecules below were run on Mus musculus (assay: […] in ip dosed nociception mouse model).
Format: functional

**Q.** How did the LD50 turn out when `CC1C[N+]2(CCN(CCc3ccccc3)CC2)CC(C)O1.[Cl-]` (stereo not given) was run?
**A.** The LD50 was 1550 µmol/kg.

The molecules below were run on Mus musculus (assay: Analgesic activity in mouse assessed as inhibition of acetic acid-induced writhing responses at 31 umol/kg, ip between 5 to 10 mins).
Format: functional
Design: scale not given: the % may be the effect or the level left

**Q.** How did the Activity turn out when `C[N+]1(C)CCN(CCc2ccccc2)CC1.[Cl-]` was run?
**A.** Its Activity is 18%.

**Q.** `COc1ccc(CCN2CC[N+]3(CC2)CC(C)OC(C)C3)cc1.[Cl-]` (stereo not given) was tested. Which Activity did it give?
**A.** Its Activity is -47%.

**Q.** How did the Activity turn out when `O=[N+]([O-])c1cccc(N2CC[N+]3(CCCC3)CC2)c1.[Br-]` was run?
**A.** The Activity was 61%.

**Q.** For `CC1C[N+]2(CCN(CCc3ccccc3)CC2)CC(C)O1.[Cl-]` (stereo not given), which Activity is on record?
**A.** Its Activity is 65%.

**Q.** With `CC1C[N+]2(CCN(CCc3ccc([N+](=O)[O-])cc3)CC2)CC(C)O1.[Cl-]` (stereo not given) as the molecule, how does the Activity read?
**A.** The Activity was -24%.

**Q.** Which Activity does the source give for `COc1ccc(N2CC[N+]3(CCCC3)CC2)cc1.[Br-]` here?
**A.** The Activity was 56%.

**Q.** Which Activity does the source give for `CC1C[N+]2(CCN(C/C=C/c3ccccc3)CC2)CC(C)O1.[Cl-]` (stereo not given) here?
**A.** The Activity was -43%.

**Q.** For `CC1C[N+]2(CCN(CCc3ccccn3)CC2)CC(C)O1.[Cl-]` (stereo not given), which Activity is on record?
**A.** Its Activity is -2%.

**Q.** `CC1C[N+]2(CCN(Cc3ccccc3)CC2)CC(C)O1.[Cl-]` (stereo not given) was tested. Which Activity did it give?
**A.** Its Activity is 21%.

**Q.** Which Activity does the source give for `C[N+]1(C)CCN(c2cccc([N+](=O)[O-])c2)CC1.[I-]` here?
**A.** The Activity was -16%.

**Q.** Which Activity does the source give for `[Br-].c1ccc(N2CC[N+]3(CCCC3)CC2)cc1` here?
**A.** Its Activity is 20%.

**Q.** `[Cl-].c1ccc(CCN2CC[N+]3(CCCCC3)CC2)cc1` was tested. Which Activity did it give?
**A.** Its Activity is 5%.

**Q.** How did the Activity turn out when `[Cl-].c1ccc(CCN2CC[N+]3(CCCC3)CC2)cc1` was run?
**A.** Its Activity is -36%.

**Q.** With `C=CCN1CC[N+]2(CC1)CC(C)OC(C)C2.[Cl-]` (stereo not given) as the molecule, how does the Activity read?
**A.** Its Activity is 49%.

**Q.** How did the Activity turn out when `O=[N+]([O-])c1ccc(N2CC[N+]3(CCCC3)CC2)cc1.[Br-]` was run?
**A.** The Activity was 16%.

**Q.** For `[Cl-].c1ccc(CCN2CC[N+]3(CCCCCC3)CC2)cc1`, which Activity is on record?
**A.** The Activity was 4%.

**Q.** For `C[N+]1(C)CCN(c2cccc([N+](=O)[O-])c2)CC1.[Br-]`, which Activity is on record?
**A.** The Activity was 22%.

**Q.** `CC1C[N+]2(CCN(CCCc3ccccc3)CC2)CC(C)O1.[Cl-]` (stereo not given) was tested. Which Activity did it give?
**A.** The Activity was -19%.

Source: ChEMBL document CHEMBL1140518, “Unique spirocyclopiperazinium salt III: further investigation of monospirocyclopiperazinium (MSPZ) salts as potential analgesics” (Bioorg Med Chem Lett, 2007)
